Assay results as given in ChEMBL document CHEMBL5705888, “Substrate specificity and inhibitors of LRRK2, a protein kinase mutated in Parkinson's disease” (Biochem J, 2009).

Legend:
[1] = molecular target: T1, Serine/threonine-protein kinase Sgk1 (Homo sapiens) (UniProt O00141); test: Residual activity of SGK1 (unknown origin) at 10 uM incubated for 30 mins in presence of [gamma-33P]ATP by multidrop micro reagent based assay relative to control
T1 sequence (whole entry): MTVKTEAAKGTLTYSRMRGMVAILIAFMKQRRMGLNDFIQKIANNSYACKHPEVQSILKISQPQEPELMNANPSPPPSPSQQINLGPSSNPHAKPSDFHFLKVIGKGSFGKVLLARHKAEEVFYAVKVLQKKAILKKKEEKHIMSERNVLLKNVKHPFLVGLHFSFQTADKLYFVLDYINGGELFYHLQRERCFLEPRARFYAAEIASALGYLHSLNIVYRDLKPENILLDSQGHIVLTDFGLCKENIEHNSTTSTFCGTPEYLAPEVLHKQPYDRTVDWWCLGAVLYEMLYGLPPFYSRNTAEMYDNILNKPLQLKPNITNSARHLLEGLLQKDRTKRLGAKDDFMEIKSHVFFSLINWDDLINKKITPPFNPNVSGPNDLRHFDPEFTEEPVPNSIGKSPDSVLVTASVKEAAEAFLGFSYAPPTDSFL

[2] = molecular target: Tyrosine-protein kinase Yes (Homo sapiens) (UniProt P07947); test: Inhibition of YES1 (unknown origin) at 10 uM incubated for 30 mins in presence of [gamma-33P]ATP by multidrop micro reagent based assay relative to control; values are per cent of control
Tyrosine-protein kinase Yes (Homo sapiens), sequence (P07947 2-543 limits assumed): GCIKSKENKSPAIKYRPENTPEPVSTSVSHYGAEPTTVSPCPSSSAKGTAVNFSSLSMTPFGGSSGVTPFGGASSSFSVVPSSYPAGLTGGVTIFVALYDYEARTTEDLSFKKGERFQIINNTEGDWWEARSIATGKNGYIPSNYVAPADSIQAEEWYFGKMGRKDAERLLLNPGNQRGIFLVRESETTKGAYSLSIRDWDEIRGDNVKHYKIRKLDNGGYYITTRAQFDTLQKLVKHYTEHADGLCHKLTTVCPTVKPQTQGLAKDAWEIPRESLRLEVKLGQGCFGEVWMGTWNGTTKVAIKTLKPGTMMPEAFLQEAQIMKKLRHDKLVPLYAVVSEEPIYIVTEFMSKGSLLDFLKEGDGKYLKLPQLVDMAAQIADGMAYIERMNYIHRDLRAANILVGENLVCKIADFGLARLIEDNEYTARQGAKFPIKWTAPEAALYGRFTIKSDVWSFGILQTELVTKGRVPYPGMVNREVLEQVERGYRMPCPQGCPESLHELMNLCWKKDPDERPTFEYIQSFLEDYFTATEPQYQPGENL

[3] = molecular target: RAC-alpha serine/threonine-protein kinase (Homo sapiens) (UniProt P31749); test: Inhibition of PKBalpha (unknown origin) at 10 uM incubated for 30 mins in presence of [gamma-33P]ATP by multidrop micro reagent based assay relative to control; values are per cent of control
RAC-alpha serine/threonine-protein kinase (Homo sapiens), sequence (P31749 whole entry): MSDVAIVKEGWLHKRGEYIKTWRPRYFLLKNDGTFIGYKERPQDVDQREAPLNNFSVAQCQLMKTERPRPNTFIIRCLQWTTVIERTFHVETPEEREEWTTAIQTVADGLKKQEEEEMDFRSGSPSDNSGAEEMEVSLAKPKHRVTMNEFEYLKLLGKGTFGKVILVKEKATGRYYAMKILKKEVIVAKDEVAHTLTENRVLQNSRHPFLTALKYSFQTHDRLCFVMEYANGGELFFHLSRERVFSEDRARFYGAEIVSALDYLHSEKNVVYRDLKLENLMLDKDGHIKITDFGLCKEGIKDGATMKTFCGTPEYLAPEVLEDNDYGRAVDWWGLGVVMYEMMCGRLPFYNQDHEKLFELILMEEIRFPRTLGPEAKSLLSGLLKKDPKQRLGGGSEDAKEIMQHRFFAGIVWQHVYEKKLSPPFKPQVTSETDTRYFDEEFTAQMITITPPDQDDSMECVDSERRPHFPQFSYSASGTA

[4] = molecular target: Insulin receptor-related protein (Homo sapiens) (UniProt P14616); test: Inhibition of IRR (unknown origin) at 1 uM incubated for 30 mins in presence of [gamma-33P]ATP by multidrop micro reagent based assay relative to control
Insulin receptor-related protein (Homo sapiens), sequence (P14616 27-742 limits assumed): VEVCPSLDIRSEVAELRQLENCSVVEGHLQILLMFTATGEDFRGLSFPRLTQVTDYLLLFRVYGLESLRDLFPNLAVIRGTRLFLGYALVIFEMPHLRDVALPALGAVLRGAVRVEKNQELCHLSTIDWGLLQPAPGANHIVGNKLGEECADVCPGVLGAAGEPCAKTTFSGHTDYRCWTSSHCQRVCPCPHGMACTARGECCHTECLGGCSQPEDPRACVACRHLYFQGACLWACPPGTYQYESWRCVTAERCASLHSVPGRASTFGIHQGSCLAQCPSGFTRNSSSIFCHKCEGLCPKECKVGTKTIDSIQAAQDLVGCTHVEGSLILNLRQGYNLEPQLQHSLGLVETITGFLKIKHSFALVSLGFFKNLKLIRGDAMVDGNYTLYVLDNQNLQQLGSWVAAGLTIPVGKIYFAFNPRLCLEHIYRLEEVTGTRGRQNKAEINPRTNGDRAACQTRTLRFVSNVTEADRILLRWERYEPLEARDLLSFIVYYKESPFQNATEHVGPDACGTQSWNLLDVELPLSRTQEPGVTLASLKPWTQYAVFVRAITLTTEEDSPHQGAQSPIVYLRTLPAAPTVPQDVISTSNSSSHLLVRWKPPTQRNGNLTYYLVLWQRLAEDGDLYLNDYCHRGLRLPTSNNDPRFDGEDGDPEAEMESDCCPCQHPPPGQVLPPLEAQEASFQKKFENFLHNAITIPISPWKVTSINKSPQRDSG
Insulin receptor-related protein (Homo sapiens), sequence (P14616 747-1297 limits assumed): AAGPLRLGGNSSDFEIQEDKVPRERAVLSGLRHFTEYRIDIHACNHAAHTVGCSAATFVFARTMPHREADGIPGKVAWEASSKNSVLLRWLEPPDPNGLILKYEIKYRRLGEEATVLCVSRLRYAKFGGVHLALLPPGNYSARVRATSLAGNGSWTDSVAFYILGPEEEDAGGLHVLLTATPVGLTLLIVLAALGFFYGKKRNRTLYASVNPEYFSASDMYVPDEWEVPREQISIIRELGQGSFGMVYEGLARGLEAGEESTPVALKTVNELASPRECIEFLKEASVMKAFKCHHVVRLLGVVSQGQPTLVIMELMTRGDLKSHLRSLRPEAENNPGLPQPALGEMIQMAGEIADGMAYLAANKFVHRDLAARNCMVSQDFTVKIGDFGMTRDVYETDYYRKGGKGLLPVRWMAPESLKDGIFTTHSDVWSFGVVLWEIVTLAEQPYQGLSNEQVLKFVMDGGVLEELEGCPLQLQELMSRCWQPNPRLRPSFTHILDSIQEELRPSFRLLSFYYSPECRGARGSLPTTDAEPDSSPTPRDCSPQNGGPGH

[5] = molecular target: T2, Mitogen-activated protein kinase 15 (Homo sapiens) (UniProt Q8TD08); test: Inhibition of ERK8 (unknown origin) at 1 uM incubated for 30 mins in presence of [gamma-33P]ATP by multidrop micro reagent based assay relative to control; values are per cent of control
T2 sequence (whole entry): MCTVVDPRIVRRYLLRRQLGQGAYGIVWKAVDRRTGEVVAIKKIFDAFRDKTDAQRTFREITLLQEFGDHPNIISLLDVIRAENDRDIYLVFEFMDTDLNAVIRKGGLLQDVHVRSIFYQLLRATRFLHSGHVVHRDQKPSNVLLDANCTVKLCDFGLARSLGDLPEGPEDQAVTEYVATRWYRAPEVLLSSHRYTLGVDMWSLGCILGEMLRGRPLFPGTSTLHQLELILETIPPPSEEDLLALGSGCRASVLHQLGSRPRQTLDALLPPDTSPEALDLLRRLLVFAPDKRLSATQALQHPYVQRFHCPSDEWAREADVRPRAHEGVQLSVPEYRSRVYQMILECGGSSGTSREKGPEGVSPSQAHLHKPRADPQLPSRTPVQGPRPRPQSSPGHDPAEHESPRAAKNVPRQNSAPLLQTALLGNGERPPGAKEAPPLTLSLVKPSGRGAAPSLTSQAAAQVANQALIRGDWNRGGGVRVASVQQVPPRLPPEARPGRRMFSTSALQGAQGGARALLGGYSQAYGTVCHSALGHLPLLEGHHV

[6] = molecular target: T1, Serine/threonine-protein kinase Sgk1 (Homo sapiens); test: Inhibition of SGK1 (unknown origin) at 1 uM incubated for 30 mins in presence of [gamma-33P]ATP by multidrop micro reagent based assay relative to control; values are per cent of control
[7] = molecular target: T3, Dual specificity tyrosine-phosphorylation-regulated kinase 3 (Homo sapiens) (UniProt O43781); test: Inhibition of DYRK3 (unknown origin) at 1 uM incubated for 30 mins in presence of [gamma-33P]ATP by multidrop micro reagent based assay relative to control; values are per cent of control
T3 sequence (whole entry): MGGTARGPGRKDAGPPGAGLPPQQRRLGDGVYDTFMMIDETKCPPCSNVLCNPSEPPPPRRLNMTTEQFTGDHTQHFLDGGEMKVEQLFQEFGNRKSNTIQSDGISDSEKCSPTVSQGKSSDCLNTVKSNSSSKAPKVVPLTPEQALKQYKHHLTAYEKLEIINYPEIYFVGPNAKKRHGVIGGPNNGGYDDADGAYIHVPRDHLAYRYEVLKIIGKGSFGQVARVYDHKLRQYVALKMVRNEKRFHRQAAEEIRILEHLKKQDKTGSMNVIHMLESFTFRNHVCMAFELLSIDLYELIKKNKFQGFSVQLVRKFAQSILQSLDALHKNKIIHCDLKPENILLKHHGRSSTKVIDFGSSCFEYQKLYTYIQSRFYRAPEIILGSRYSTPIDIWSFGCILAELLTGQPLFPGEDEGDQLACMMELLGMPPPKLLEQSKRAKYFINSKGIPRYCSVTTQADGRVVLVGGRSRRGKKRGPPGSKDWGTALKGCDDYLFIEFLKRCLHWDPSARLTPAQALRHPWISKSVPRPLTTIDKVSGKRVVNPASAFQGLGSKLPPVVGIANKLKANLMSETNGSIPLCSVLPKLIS

Homo sapiens = species: Homo sapiens; test: Inhibition of PHK (unknown origin) at 1 uM incubated for 30 mins in presence of [gamma-33P]ATP by multidrop micro reagent based assay relative to control; values are per cent of control
[8] = molecular target: T4, MAP kinase-activated protein kinase 5 (Homo sapiens) (UniProt Q8IW41); test: Inhibition of PRAK (unknown origin) at 1 uM incubated for 30 mins in presence of [gamma-33P]ATP by multidrop micro reagent based assay relative to control; values are per cent of control
T4 sequence (whole entry): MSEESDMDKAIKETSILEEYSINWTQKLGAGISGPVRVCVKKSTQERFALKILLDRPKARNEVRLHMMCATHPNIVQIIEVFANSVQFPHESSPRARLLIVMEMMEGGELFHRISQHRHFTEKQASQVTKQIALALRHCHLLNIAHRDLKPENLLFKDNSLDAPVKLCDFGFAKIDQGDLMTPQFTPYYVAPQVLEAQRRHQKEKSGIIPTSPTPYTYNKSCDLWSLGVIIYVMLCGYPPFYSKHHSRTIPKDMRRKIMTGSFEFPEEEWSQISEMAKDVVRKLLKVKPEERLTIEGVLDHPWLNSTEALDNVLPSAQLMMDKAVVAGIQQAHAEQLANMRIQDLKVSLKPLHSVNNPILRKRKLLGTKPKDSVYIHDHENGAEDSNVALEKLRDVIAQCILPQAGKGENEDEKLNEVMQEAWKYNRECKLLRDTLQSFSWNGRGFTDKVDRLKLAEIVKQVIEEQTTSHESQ

Row | SMILES | residual activity [1] [%] | residual activity [2] [%] | residual activity [3] [%] | inhibition [4] [%] | residual activity [5] [%] | residual activity [6] [%] | residual activity [7] [%] | residual activity (Homo sapiens) [%] | residual activity [8] [%]
1 | C[C@@H](N)[C@H]1CC[C@H](C(=O)Nc2ccncc2)CC1 | 50 | 96 | 56 | – | – | – | – | – | –
2 | O=S(=O)(c1cccc2cnccc12)N1CCCNCC1 [FASUDIL] | 69 | 136 | 27 | – | – | – | – | – | –
3 | CCn1c(-c2nonc2N)nc2cnc(Oc3cccc(NC(=O)c4ccc(OCCN5CCOCC5)cc4)c3)cc21 [GSK-269962A] | – | – | – | 61 | 27 | 24 | 77 | – | –
4 | CC1=C(C(=O)Nc2cc3cn[nH]c3cc2F)C(c2ccc(C(F)(F)F)cc2)CC(=O)N1 (stereo not drawn) | – | – | – | 106 | 95 | 131 | 94 | 97 | 92
5 | CCN(CC)CCNC(=O)c1c(C)[nH]c(/C=C2\C(=O)Nc3ccc(F)cc32)c1C | – | – | – | – | – | – | – | 2 | 75
